In patent US20250171430A1, “PYRAZOLYL COMPOUNDS AS KV7 CHANNEL ACTIVATORS” (Biohaven Therapeutics Ltd., priority 2022, published 2025):

Molecular target: T1, Kv7.2/7.3 (Homo sapiens, UniProt O43525+O43526)
T1 construct: Kv7.2 tetracycline-induced, Kv7.3 constitutive
Assay: Kv7.2/7.3 Activation Assay (Thallium Flux Assay)
Assay type: cell-based
Details: hKV7.2/7.3 cell line; test compound at single concentration of 10 μM; fluorescence at 90 sec normalized to positive control (retigabine, 30 μM)
Procedure, shortened: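 Single-point activity at 10 μM (0.1% DMSO, HEPES-buffered saline, pH 7.4) was scored from fluorescence at 90 s relative to 30 μM retigabine. Categories were none <0.15, moderate 0.15-0.7 and high >0.7. Thallium influx after stimulus addition was followed with FluxOR II Green dye in hKv7.2/7.3 cells, Kv7.2 expressed under overnight tetracycline (10 ng/mL) induction.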

Kv7.2/7.3 Activity	SMILES
++ (“++” High Activity ≥ 0.7)	Cn1nc(NC(=O)CC(C)(C)C(F)(F)F)c(C2CCC2)c1-c1ccc(Cl)s1 [Compound 96, N-(5-(5-chlorothiophen-2-yl)-4-cyclobutyl-1-methyl-1H-pyrazol-3-yl)-4,4,4-trifluoro-3,3-dimethylbutanamide]
++ (“++” High Activity ≥ 0.7)	Cn1nc(NC(=O)NC2CC(F)(F)C2)c(C2CCC2)c1-c1cc(F)cc(F)c1 [Compound 270, 1-(4-cyclobutyl-5-(3,5-difluorophenyl)-1-methyl-1H-pyrazol-3-yl)-3-(3,3-difluorocyclobutyl)urea]
+ (“+” Moderate Activity 0.15-0.7)	Cn1nc(NC(=O)c2ccccc2)c(C2CCC2)c1-c1ccc(OC(F)(F)F)cc1 [Compound 198, N-(4-cyclobutyl-1-methyl-5-(4-(trifluoromethoxy)phenyl)-1H-pyrazol-3-yl)benzamide]
+ (“+” Moderate Activity 0.15-0.7)	Cc1nnsc1-c1c(C2CCC2)c(NC(=O)C2CC(F)(F)C2)nn1C [Compound 225, N-(4-cyclobutyl-1-methyl-5-(4-methyl-1,2,3-thiadiazol-5-yl)-1H-pyrazol-3-yl)-3,3-difluorocyclobutane-1-carboxamide]
++ (“++” High Activity ≥ 0.7)	Cn1nc(NC(=O)C2(C)CC(F)(F)C2)c(C2CCC2)c1-c1ccc(Cl)s1 [Compound 210, N-(5-(5-chlorothiophen-2-yl)-4-cyclobutyl-1-methyl-1H-pyrazol-3-yl)-3,3-difluoro-1-methylcyclobutane-1-carboxamide]
++ (“++” High Activity ≥ 0.7)	CC(C)c1c(NC(=O)CC2(C(F)(F)F)CC2)nn(C)c1-c1ccc(OC(F)(F)F)cc1 [Compound 26, N-(4-isopropyl-1-methyl-5-(4-(trifluoromethoxy)phenyl)-1H-pyrazol-3-yl)-2-(1-(trifluoromethyl)cyclopropyl)acetamide]
++ (“++” High Activity ≥ 0.7)	Cn1nc(NC(=O)[C@H]2CC2(C)C)c(-c2ccc(F)cc2)c1C1CC(F)(F)C1 [Compound 207, (S)-N-(5-(3,3-difluorocyclobutyl)-4-(4-fluorophenyl)-1-methyl-1H-pyrazol-3-yl)-2,2-dimethylcyclopropane-1-carboxamide]
++ (“++” High Activity ≥ 0.7)	COC1(CC(=O)Nc2nn(C)c(-c3ccc(F)c(F)c3)c2C2CCC2)CCC1 [Compound 216, N-(4-cyclobutyl-5-(3,4-difluorophenyl)-1-methyl-1H-pyrazol-3-yl)-2-(1-methoxycyclobutyl)acetamide]
− (“−” No Activity < 0.15)	Cn1nc(NC(=O)[C@H]2CC2(F)F)c(C2CCC2)c1-c1ccc(Cl)cc1 [Compound 224, (R)-N-(5-(4-chlorophenyl)-4-cyclobutyl-1-methyl-1H-pyrazol-3-yl)-2,2-difluorocyclopropane-1-carboxamide]
+ (“+” Moderate Activity 0.15-0.7)	Cn1nc(NC(=O)C[C@@H]2CC(F)(F)C2(F)F)c(C2CCC2)c1-c1cnc(C(F)(F)F)s1 [Compound 59, (R)-N-(4-cyclobutyl-1-methyl-5-(2-(trifluoromethyl)thiazol-5-yl)-1H-pyrazol-3-yl)-2-(2,2,3,3-tetrafluorocyclobutyl)acetamide]
++ (“++” High Activity ≥ 0.7)	Cn1nc(NC(=O)CC2(C(F)(F)F)CC2)c(C2CCC2)c1-c1ccc(OC(F)(F)F)cc1 [Compound 31, N-(4-cyclobutyl-1-methyl-5-(4-(trifluoromethoxy)phenyl)-1H-pyrazol-3-yl)-2-(1-(trifluoromethyl)cyclopropyl)acetamide]
+ (“+” Moderate Activity 0.15-0.7)	Cn1nc(NC(=O)[C@@H]2CC2(F)F)c(C2CCC2)c1-c1ccc(Cl)cc1 [Compound 223, (S)-N-(5-(4-chlorophenyl)-4-cyclobutyl-1-methyl-1H-pyrazol-3-yl)-2,2-difluorocyclopropane-1-carboxamide]
++ (“++” High Activity ≥ 0.7)	Cn1nc(NC(=O)C2CC3(CCC3)C2)c(C2CCC2)c1-c1ccc(F)cc1 [Compound 187, N-(4-cyclobutyl-5-(4-fluorophenyl)-1-methyl-1H-pyrazol-3-yl)spiro[3.3]heptane-2-carboxamide]
++ (“++” High Activity ≥ 0.7)	Cn1nc(NC(=O)C[C@H]2CC(F)(F)C2(F)F)c(C2CCC2)c1-c1ccc(F)c(F)c1 [Compound 236, (S)-N-(4-cyclobutyl-5-(3,4-difluorophenyl)-1-methyl-1H-pyrazol-3-yl)-2-(2,2,3,3-tetrafluorocyclobutyl)acetamide]
+ (“+” Moderate Activity 0.15-0.7)	Cn1nc(NC(=O)NCC(F)(F)F)c(C2CCC2)c1-c1ccc(F)cc1 [Compound 240, 1-(4-cyclobutyl-5-(4-fluorophenyl)-1-methyl-1H-pyrazol-3-yl)-3-(2,2,2-trifluoroethyl)urea]
++ (“++” High Activity ≥ 0.7)	Cn1nc(NC(=O)C[C@@H]2CC(F)(F)C2(F)F)c(C2CCC2)c1-c1cc(F)c(F)c(F)c1 [Compound 262, (R)-N-(4-cyclobutyl-1-methyl-5-(3,4,5-trifluorophenyl)-1H-pyrazol-3-yl)-2-(2,2,3,3-tetrafluorocyclobutyl)acetamide]
++ (“++” High Activity ≥ 0.7)	COc1ccc(-c2c(C3CCC3)c(NC(=O)C[C@@H]3CC(F)(F)C3(F)F)nn2C)cc1 [Compound 56, (R)-N-(4-cyclobutyl-5-(4-methoxyphenyl)-1-methyl-1H-pyrazol-3-yl)-2-(2,2,3,3-tetrafluorocyclobutyl)acetamide]
++ (“++” High Activity ≥ 0.7)	O=C(CC1(C(F)(F)F)CC1)Nc1nn(CCO)c(Cc2ccccc2)c1C1CCC1 [Compound 76, N-(5-benzyl-4-cyclobutyl-1-(2-hydroxyethyl)-1H-pyrazol-3-yl)-2-(1-(trifluoromethyl)cyclopropyl)acetamide]
++ (“++” High Activity ≥ 0.7)	Cn1nc(NC(=O)C23CC(C(F)(F)F)(C2)C3)c(C2CCC2)c1-c1ccc(Cl)s1 [Compound 232, N-(5-(5-chlorothiophen-2-yl)-4-cyclobutyl-1-methyl-1H-pyrazol-3-yl)-3-(trifluoromethyl)bicyclo[1.1.1]pentane-1-carboxamide]
++ (“++” High Activity ≥ 0.7)	Cn1nc(NC(=O)C2CC(F)(F)C2)c(C2CCC2)c1-c1ccc(F)cc1 [Compound 125, N-(4-cyclobutyl-5-(4-fluorophenyl)-1-methyl-1H-pyrazol-3-yl)-3,3-difluorocyclobutane-1-carboxamide]
++ (“++” High Activity ≥ 0.7)	C[C@@H](C(=O)Nc1nn(C)c(-c2ccc(Cl)s2)c1C1CCC1)C1(C(F)(F)F)CC1 [Compound 234, (R)-N-(5-(5-chlorothiophen-2-yl)-4-cyclobutyl-1-methyl-1H-pyrazol-3-yl)-2-(1-(trifluoromethyl)cyclopropyl)propanamide]
++ (“++” High Activity ≥ 0.7)	Cn1nc(NC(=O)C2CC(C)(C)C2)c(C2CCC2)c1-c1ccc(F)cc1 [Compound 121, N-(4-cyclobutyl-5-(4-fluorophenyl)-1-methyl-1H-pyrazol-3-yl)-3,3-dimethylcyclobutane-1-carboxamide]
− (“−” No Activity < 0.15)	Cc1nc(C)c(-c2c(C3CCC3)c(NC(=O)C3(C(F)(F)F)CC3)nn2C)s1 [Compound 149, N-(4-cyclobutyl-5-(2,4-dimethylthiazol-5-yl)-1-methyl-1H-pyrazol-3-yl)-1-(trifluoromethyl)cyclopropane-1-carboxamide]
++ (“++” High Activity ≥ 0.7)	Cn1nc(NC(=O)C[C@H]2CC(F)(F)C2(F)F)c(C2CC(F)(F)C2)c1-c1ccc(OC(F)(F)F)cc1 [Compound 40, (S)-N-(4-(3,3-difluorocyclobutyl)-1-methyl-5-(4-(trifluoromethoxy)phenyl)-1H-pyrazol-3-yl)-2-(2,2,3,3-tetrafluorocyclobutyl)acetamide]
++ (“++” High Activity ≥ 0.7)	CC(C)CC1(C(=O)Nc2nn(C)c(-c3ccc(F)cc3)c2C2CCC2)CC1 [Compound 138, N-(4-cyclobutyl-5-(4-fluorophenyl)-1-methyl-1H-pyrazol-3-yl)-1-isobutylcyclopropane-1-carboxamide]
++ (“++” High Activity ≥ 0.7)	Cn1nc(NC(=O)OC2CC(F)(F)C2)c(C2CCC2)c1-c1ccc(OC(F)(F)F)cc1 [Compound 281, 3,3-difluorocyclobutyl (4-cyclobutyl-1-methyl-5-(4-(trifluoromethoxy)phenyl)-1H-pyrazol-3-yl)carbamate]
+ (“+” Moderate Activity 0.15-0.7)	Cn1nc(NC(=O)CC2(C(F)(F)F)CC2)c(C2CCC2)c1C1CCCCC1 [Compound 69, N-(4-cyclobutyl-5-cyclohexyl-1-methyl-1H-pyrazol-3-yl)-2-(1-(trifluoromethyl)cyclopropyl)acetamide]
+ (“+” Moderate Activity 0.15-0.7)	Cn1nc(NC(=O)C2(C)CC(F)(F)C2)c(C2CCC2)c1-c1ccc(OC(F)(F)F)cc1 [Compound 200, N-(4-cyclobutyl-1-methyl-5-(4-(trifluoromethoxy)phenyl)-1H-pyrazol-3-yl)-3,3-difluoro-1-methylcyclobutane-1-carboxamide]
++ (“++” High Activity ≥ 0.7)	Cn1nc(NC(=O)OC2CC(F)(F)C2)c(C2CCC2)c1-c1ccc(Cl)c(F)c1 [Compound 260, 3,3-difluorocyclobutyl (5-(4-chloro-3-fluorophenyl)-4-cyclobutyl-1-methyl-1H-pyrazol-3-yl)carbamate]
+ (“+” Moderate Activity 0.15-0.7)	Cn1nc(NC(=O)Cc2ccc(F)c(F)c2)c(C2CCC2)c1-c1ccc(F)cc1 [Compound 91, N-(4-cyclobutyl-5-(4-fluorophenyl)-1-methyl-1H-pyrazol-3-yl)-2-(3,4-difluorophenyl)acetamide]
